The values that follow come from ChEMBL document CHEMBL3639292, “17-hydroxy-19-nor-21-carboxylic acid-steroid Œ=-lactone derivative, use thereof, and medicament containing the derivative” (2015).

One may read the IC50 as the midpoint of a concentration-inhibition curve.

The target in the assay is T1, Androgen receptor (Homo sapiens, UniProt P10275).
T1 sequence (P10275 whole entry): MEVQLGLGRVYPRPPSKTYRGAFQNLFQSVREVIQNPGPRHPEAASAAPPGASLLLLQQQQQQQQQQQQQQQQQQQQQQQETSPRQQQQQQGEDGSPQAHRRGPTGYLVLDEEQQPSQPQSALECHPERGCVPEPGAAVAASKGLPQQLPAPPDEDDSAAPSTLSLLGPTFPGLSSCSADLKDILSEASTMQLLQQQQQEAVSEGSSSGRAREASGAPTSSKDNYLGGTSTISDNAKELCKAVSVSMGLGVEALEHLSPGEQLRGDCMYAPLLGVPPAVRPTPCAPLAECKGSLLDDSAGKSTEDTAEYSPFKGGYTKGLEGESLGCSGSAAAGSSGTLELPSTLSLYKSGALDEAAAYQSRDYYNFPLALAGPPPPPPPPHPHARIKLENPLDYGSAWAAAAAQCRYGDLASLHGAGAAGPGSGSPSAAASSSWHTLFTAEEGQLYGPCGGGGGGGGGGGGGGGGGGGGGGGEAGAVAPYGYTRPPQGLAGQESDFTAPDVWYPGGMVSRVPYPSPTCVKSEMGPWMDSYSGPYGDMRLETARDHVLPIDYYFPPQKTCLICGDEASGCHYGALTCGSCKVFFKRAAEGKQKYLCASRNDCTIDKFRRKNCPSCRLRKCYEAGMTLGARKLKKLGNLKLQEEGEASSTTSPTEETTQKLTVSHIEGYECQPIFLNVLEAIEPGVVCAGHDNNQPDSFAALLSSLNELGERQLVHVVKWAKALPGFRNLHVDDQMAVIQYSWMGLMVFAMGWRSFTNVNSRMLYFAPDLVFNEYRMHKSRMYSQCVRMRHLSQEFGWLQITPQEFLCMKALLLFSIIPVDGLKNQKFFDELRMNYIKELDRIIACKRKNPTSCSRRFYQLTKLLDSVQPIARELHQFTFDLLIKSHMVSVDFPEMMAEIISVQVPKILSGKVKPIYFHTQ
The assay is described as follows: Binding Assay: The test was carried out as in 1., with the following modifications: cytosol from androgen receptor-expressing insect cells (Hi5) was used, and the reference substance was 3H-testosterone.The results of the binding tests and the ratio of the competition factors CF(PR) and CR(MR) are shown in Table 1, which for comparison also shows receptor binding values of drospirenone as ….

With `C[C@]12CC[C@H]3[C@@H](CC4(CC4)C4=CC(=O)CC[C@@H]43)[C@@H]1CC[C@@]21C=CC(=O)O1`, the IC50 worked out at 37 nM.
`CC[C@]12CC[C@H]3[C@@H](CC4(CC4)C4=CC(=O)CC[C@@H]43)[C@@H]1CC[C@@]21C=CC(=O)O1`: the IC50 is 42 nM.
